Laboratory results taken from ChEMBL document CHEMBL3400115, “Chemical constituents from Kandelia candel with their inhibitory effects on pro-inflammatory cytokines production in LPS-stimulated bone marrow-derived dendritic cells (BMDCs)” (Bioorg Med Chem Lett, 2015).

Tests used:
Type in all cases: functional
[1] = Inhibition of LPS-induced IL-6 production in wild-type C57BL/6 mouse BMDC pretreated with compound for 1 hr before LPS treatment measured 16 hrs by ELISA
[2] = Inhibition of LPS-induced IL-12 p40 production in wild-type C57BL/6 mouse BMDC pretreated with compound for 1 hr before LPS treatment measured 16 hrs by ELISA
[3] = Inhibition of LPS-induced TNF-alpha production in wild-type C57BL/6 mouse BMDC pretreated with compound for 1 hr before LPS treatment measured 16 hrs by ELISA

Compound: COc1cc([C@H]2OC[C@H]3[C@@H]2CO[C@@H]3c2cc(OC)c(O[C@@H]3O[C@H](CO)[C@@H](O)[C@H](O)[C@H]3O)c(OC)c2)cc(OC)c1O
- IC50 [1]: > 50 µM
- IC50 [2]: > 50 µM
- IC50 [3]: > 50 µM

Compound: COc1cc(-c2oc3cc(O)cc(O)c3c(=O)c2O[C@@H]2O[C@H](CO)[C@@H](O)[C@H](O)[C@H]2O)ccc1O
- IC50 [1]: > 50 µM
- IC50 [2]: > 50 µM
- IC50 [3]: > 50 µM

Compound: CC1=C(CC[C@H](C)O)C(C)(C)C[C@H](O[C@@H]2O[C@H](CO)[C@@H](O)[C@H](O)[C@H]2O)C1
- IC50 [1]: > 50 µM
- IC50 [2]: > 50 µM
- IC50 [3]: > 50 µM

Compound: CC(C)(O)[C@H]1CC[C@@]2(C)[C@@H]3C[C@@H](O[C@@H]4O[C@H](CO)[C@@H](O)[C@H](O)[C@H]4O)[C@]2(C)[C@H](O)C31
- IC50 [1]: > 50 µM
- IC50 [2]: > 50 µM
- IC50 [3]: > 50 µM

Compound: CC1=CC(=O)CC(C)(C)[C@H]1CC[C@H](C)O[C@@H]1O[C@H](CO)[C@@H](O)[C@H](O)[C@H]1O
- IC50 [1]: > 50 µM
- IC50 [2]: > 50 µM
- IC50 [3]: > 50 µM

Compound: COc1cc([C@@H](O)[C@H](O)CO)cc(OC)c1O (relative stereo)
- IC50 [1]: > 50 µM
- IC50 [2]: > 50 µM
- IC50 [3]: 28.7 µM

Compound: COc1cc([C@@H](O)[C@@H](O)CO)cc(OC)c1O (relative stereo)
- IC50 [1]: > 50 µM
- IC50 [2]: > 50 µM
- IC50 [3]: > 50 µM

Compound: CC1=CC(=O)CC(C)(C)[C@@]1(O)/C=C/[C@H](C)O[C@@H]1O[C@H](CO)[C@@H](O)[C@H](O)[C@H]1O [6S,9S-ROSEOSIDE]
- IC50 [1]: 0.07 µM
- IC50 [2]: > 50 µM
- IC50 [3]: 49.9 µM

Compound: Oc1cc(O)c2c(c1)O[C@H](c1ccc(O)c(O)c1)[C@H](O)C2 [(-)-EPICATECHIN]
- IC50 [1]: > 50 µM
- IC50 [2]: > 50 µM
- IC50 [3]: > 50 µM

Compound: C[C@@H]1O[C@@H](Oc2c(-c3ccc(O)cc3)oc3cc(O)cc(O)c3c2=O)[C@H](O)[C@H](O)[C@H]1O [AFZELIN]
- IC50 [1]: > 50 µM
- IC50 [2]: > 50 µM
- IC50 [3]: > 50 µM

Compound: O=C(O)/C=C/c1ccc(O)c(O)c1 [CAFFEIC ACID]
- IC50 [1]: > 50 µM
- IC50 [2]: > 50 µM
- IC50 [3]: > 50 µM

Compound: O=C(/C=C/c1ccc(O)c(O)c1)O[C@@H]1C[C@](O)(C(=O)O)C[C@@H](O)[C@H]1O [CHLOROGENIC ACID]
- IC50 [1]: > 50 µM
- IC50 [2]: > 50 µM
- IC50 [3]: > 50 µM

Compound: Oc1cc(O)c2c(c1)O[C@H](c1ccc(O)c(O)c1)[C@@H](O)C2 [CIANIDANOL]
- IC50 [1]: > 50 µM
- IC50 [2]: > 50 µM
- IC50 [3]: > 50 µM

Compound: O=c1c(O[C@@H]2O[C@H](CO)[C@@H](O)[C@H](O)[C@H]2O)c(-c2ccc(O)c(O)c2)oc2cc(O)cc(O)c12 [ISOQUERCETIN]
- IC50 [1]: > 50 µM
- IC50 [2]: > 50 µM
- IC50 [3]: > 50 µM

Compound: COc1cc(-c2oc3cc(O)cc(O)c3c(=O)c2O[C@@H]2O[C@H](CO[C@@H]3O[C@@H](C)[C@H](O)[C@@H](O)[C@H]3O)[C@@H](O)[C@H](O)[C@H]2O)ccc1O [NARCISSIN]
- IC50 [1]: > 50 µM
- IC50 [2]: > 50 µM
- IC50 [3]: > 50 µM

Compound: O=C(O)c1ccc(O)c(O)c1 [PROTOCATECHUIC ACID]
- IC50 [1]: > 50 µM
- IC50 [2]: > 50 µM
- IC50 [3]: > 50 µM

Compound: C[C@@H]1O[C@@H](OC[C@H]2O[C@@H](Oc3c(-c4ccc(O)c(O)c4)oc4cc(O)cc(O)c4c3=O)[C@H](O)[C@@H](O)[C@@H]2O)[C@H](O)[C@H](O)[C@H]1O [RUTIN]
- IC50 [1]: > 50 µM
- IC50 [2]: > 50 µM
- IC50 [3]: > 50 µM
